These results are taken from patent US20080015146A1, “Dpp-IV Inhibitors” (SANTHERA PHARMACEUTICALS (DEUTSCHLAND) AG, priority 2004, published 2008).

A word on the IC50: it is the concentration that inhibits the measured activity by half. A high value points to a need for much substance.

SMILES strings stand for the structures.

T1 sequence (P27487 31-766): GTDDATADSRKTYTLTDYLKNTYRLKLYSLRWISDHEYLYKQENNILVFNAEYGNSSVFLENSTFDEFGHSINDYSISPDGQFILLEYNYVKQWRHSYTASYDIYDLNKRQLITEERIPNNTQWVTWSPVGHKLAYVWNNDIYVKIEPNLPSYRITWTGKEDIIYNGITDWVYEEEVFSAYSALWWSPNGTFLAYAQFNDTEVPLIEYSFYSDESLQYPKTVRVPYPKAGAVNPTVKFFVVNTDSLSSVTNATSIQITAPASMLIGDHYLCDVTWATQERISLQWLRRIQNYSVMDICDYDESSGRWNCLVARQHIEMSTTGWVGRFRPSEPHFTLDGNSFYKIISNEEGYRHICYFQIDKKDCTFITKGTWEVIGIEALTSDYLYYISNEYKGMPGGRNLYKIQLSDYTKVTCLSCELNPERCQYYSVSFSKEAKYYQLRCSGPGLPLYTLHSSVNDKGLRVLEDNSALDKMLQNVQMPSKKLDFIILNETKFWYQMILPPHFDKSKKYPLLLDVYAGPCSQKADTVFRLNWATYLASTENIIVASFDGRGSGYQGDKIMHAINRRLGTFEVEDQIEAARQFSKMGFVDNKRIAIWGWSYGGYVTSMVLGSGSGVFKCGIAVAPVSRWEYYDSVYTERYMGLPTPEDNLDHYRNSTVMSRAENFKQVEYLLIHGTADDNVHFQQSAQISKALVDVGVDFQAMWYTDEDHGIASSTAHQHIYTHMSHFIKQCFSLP

This assay addresses T1, DPP-IV (Homo sapiens, UniProt P27487).
T1 construct: Soluble human DPP-IV lacking the transmembrane anchor (Gly31-Pro766); Pre-Pro-alpha-mating factor secretion leader (N, cleaved yes); made in house
Briefly: Continuous fluorimetric assay of inhibition of DPP-IV peptidase activity (cleavage of Gly-Pro-AMC). In kind it is biochemical. Conditions: substrate Gly-Pro-AMC 16 μM, pH 7.4, 25° C., 1% DMSO; assays carried out with human and porcine DPP-IV (comparable activities). As to the method:
Inhibition of DPP-IV peptidase activity was monitored with a continuous fluorimetric assay. This assay is based on the cleavage of the substrate Gly-Pro-AMC (Bachem) by DPP-IV, releasing free AMC. The assay is carried out in 96-well microtiterplates. In a total volume of 100 μl compounds are preincubated with […] DPP-IV employing a buffer containing 10 mM Hepes, 150 mM NaCl, 0.005% Tween 20 (pH 7.4). […] The final concentration of DMSO is 1%. The inhibitory potential of the compounds were determined.
Soluble human DPP-IV lacking the transmembrane anchor (Gly31-Pro766) was expressed in a recombinant YEAST-strain as Pre-Pro-alpha-mating fusion. The secreted product (rhuDPP-IV-Gly31-Pro766) was purified from fermentation broth (>90% purity).
Regarding `N[C@@H](CC(=O)N1CC(N2CCC(C(F)(F)F)CC2)C1)Cc1ccccc1F` [Example 50, (3R)-3-Amino-4-(2-fluoro-phenyl)-1-[3-(4-trifluoromethyl-piperidin-1-yl)-azetidin-1-yl]-butan-1-one], the concentration for half-maximal inhibition (IC50) fell in the range of 1000 to 2000 nM.
For `N[C@@H](CC(=O)N1CC(N2CCN(c3ccccn3)CC2)C1)Cc1ccccc1F` [Example 51, (3R)-3-Amino-4-(2-fluoro-phenyl)-1-[3-(4-pyridin-2-yl-piperazin-1-yl)-azetidin-1-yl]-butan-1-one], the IC50 was in the range of 1000 to 2000 nM.
On to `N[C@@H](CC(=O)N1CC(n2cccn2)C1)Cc1ccccc1F` [Example 52, (3R)-3-Amino-4-(2-fluoro-phenyl)-1-(3-pyrazol-1-yl-azetidin-1-yl)-butan-1-one], for which the IC50 lay within 101 to 1000 nM.
The same measure for `N[C@@H](CC(=O)N1CC(n2ccc(C(F)(F)F)n2)C1)Cc1cc(F)c(F)cc1F` [Example 53, (3R)-3-Amino-1-[3-(3-trifluoromethyl-pyrazol-1-yl)-azetidin-1-yl]-4-(2,4,5-trifluorophenyl)-butan-1-one]: less than 100 nM; for `N[C@@H](CC(=O)N1CC(n2nccc2C(F)(F)F)C1)Cc1cc(F)c(F)cc1F` [Example 54, (3R)-3-amino-1-[3-(5-trifluoromethyl-pyrazol-1-yl)azetidin-1-yl]-4-(2,4,5-trifluoro-phenyl)-butan-1-one]: less than 100 nM.
For the compound `N[C@@H](CC(=O)N1CC(n2ccc(C3CC3)n2)C1)Cc1cc(F)c(F)cc1F` [Example 55, (R)-3-Amino-1-[3-(3-cyclopropyl-pyrazol-1-yl)-azetidin-1-yl]-4-(2,4,5-trifluoro-phenyl)butan-1-one], the concentration for half-maximal inhibition (IC50) is less than 100 nM.
The same measure for `N[C@@H](CC(=O)N1CC(n2nccc2C2CC2)C1)Cc1cc(F)c(F)cc1F` [Example 56, (R)-3-amino-1-[3-(5-cyclopropyl-pyrazol-1-yl)-azetidin-1-yl]-4-(2,4,5-trifluoro-phenyl)-butan-1-one]: less than 100 nM.
